Measured values: patent publication US6750228B1, “Aromatic sulfone hydroxamic acid metalloprotease inhibitor” (priority 1997, dated 2004)
pIC50: −log10 of the molar value. Read-outs that look alike come from different tables or passages of the source.

Legend:
Assay in all cases: biochemical
MMP-1 = target: T1, MMP-1 (Homo sapiens, UniProt P03956); conditions: read-out: MMP-1 IC50
T1 construct: made in house; host or cells: transfected HT-1080 cells (provided by Dr. Harold Welgus, Washington University)
T1 sequence (P03956 100-469): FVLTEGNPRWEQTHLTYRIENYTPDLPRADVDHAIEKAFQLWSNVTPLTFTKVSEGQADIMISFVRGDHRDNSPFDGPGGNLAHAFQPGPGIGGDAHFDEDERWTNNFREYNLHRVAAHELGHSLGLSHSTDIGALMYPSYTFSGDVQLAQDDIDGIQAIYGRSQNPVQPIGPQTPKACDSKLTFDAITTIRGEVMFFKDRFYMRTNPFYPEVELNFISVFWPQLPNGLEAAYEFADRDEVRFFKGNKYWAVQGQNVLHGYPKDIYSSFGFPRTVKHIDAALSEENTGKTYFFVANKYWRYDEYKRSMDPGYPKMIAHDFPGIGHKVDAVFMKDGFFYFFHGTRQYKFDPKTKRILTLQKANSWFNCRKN
Protocol: (§1) The compounds prepared in the manner described in the Examples above were assayed for activity by an in vitro assay. […] Briefly, 4-aminophenylmercuric acetate (APMA) or trypsin-activated MMPs were incubated with various concentrations of the inhibitor compound at room temperature for 5 minutes.
(§2) The expressed enzyme was purified first over a heparin agarose column and then over a chelating zinc chloride column. The proenzyme was activated by APMA for use in the assay.
(§3) MMP-1 expressed in transfected HT-1080 cells was provided by Dr. Harold Welgus of Washington University, St. Louis, Mo. The enzyme was also activated using APMA and was then purified over a hydroxamic acid column. Dr. Welgus also provided transfected HT-1080 cells that expressed MMP-9. Transfected cells that expressed MMP-2 were provided by Dr. Gregory Goldberg, also of Washington University. Studies with MMP-7 were carried out at pH 7.5 in the presence of 0.02% 2-mercaptoethanol using conditions otherwise similar to those used for the other enzymes. The enzyme was obtaind from a hMMP-7-expressing E. coli clone that was a gift of Dr. Steven Shapiro of Washington University, St. Louis, Mo. Further specifics for preparation and use of these enzymes can be found in the scientific literature describing these enzymes. See, for example, Enzyme Nomenclature, Academic Press, San Diego, Calif. […] The enzyme substrate is a methoxycoumarin-containing polypeptide having the following sequence:
(§4) MCA-ProLeuGlyLeuDpaAlaArgNH2, wherein MCA is methoxycoumarin and Dpa is 3-(2,4-dinitrophenyl)-L-2,3-diaminopropionyl alanine.
(§5) The buffer used for assays contained 100 mM Tris-HCl, 100 mM NaCl, 10 mM CaCl2 and 0.05 percent polyethyleneglycol (23) lauryl ether at a pH value of 7.5. Assays were carried out at room temperature, and dimethyl sulfoxide (DMSO) at a final concentration of 1 percent was used to dissolve inhibitor compound.
(§6) The assayed inhibitor compound in DMSO/buffer solution was compared to an equal amount of DMSO/buffer with no inhibitor as control using Microfluor White Plates (Dynatech). The inhibitor or control solution was maintained in the plate for 10 minutes and the substrate was added to provide a final concentration of 4 μM.
(§7) Inhibition was measured as a reduction in fluorescent intensity as a function of inhibitor concentration, using a Perkin Elmer L550 plate reader. The IC50 values were calculated from those values. The results are set forth in the Inhibition Table A, below, reported in terms of IC50 to three significant figures, where appropriate.

MMP-2 = target: T2, MMP-2 (Homo sapiens, UniProt P08253); conditions: for pIC50: read-out: MMP-2 IC50
T2 construct: made in house; provided by Dr. Gregory Goldberg, Washington University
T2 sequence (P08253 110-660): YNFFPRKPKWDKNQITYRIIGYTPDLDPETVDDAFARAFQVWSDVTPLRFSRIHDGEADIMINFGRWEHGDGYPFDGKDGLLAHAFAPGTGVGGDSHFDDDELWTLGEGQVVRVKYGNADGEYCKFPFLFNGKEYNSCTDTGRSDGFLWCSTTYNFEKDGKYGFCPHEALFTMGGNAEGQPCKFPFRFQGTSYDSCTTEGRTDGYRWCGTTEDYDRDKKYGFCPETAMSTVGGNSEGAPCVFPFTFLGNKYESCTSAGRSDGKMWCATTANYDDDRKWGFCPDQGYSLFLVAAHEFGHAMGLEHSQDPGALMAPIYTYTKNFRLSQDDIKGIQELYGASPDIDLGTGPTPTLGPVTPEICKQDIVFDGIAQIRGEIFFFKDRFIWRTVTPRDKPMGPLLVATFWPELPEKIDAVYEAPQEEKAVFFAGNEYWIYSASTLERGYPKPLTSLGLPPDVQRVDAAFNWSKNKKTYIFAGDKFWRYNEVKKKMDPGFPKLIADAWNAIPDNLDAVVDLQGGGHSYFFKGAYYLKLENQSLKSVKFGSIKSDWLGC
Protocol: as §1, §2, §3, §4, §5, §6, §7

MMP-13 = target: T3, MMP-13 (Homo sapiens, UniProt P45452); conditions: for pIC50: read-out: MMP-13 IC50
T3 construct: made in house; host or cells: baculovirus / insect cells
Protocol: as §1, §2, §3, §4, §5, §6, §7

[1] = recombinant human MMP-1, MCA peptide substrate 4 μM, pH 7.5, room temperature
[2] = recombinant human MMP-2, MCA peptide substrate 4 μM, pH 7.5, room temperature
[3] = recombinant human MMP-13, MCA peptide substrate 4 μM, pH 7.5, room temperature

| pIC50 (MMP-1; [1]) | pIC50 (MMP-2; [2]) | pIC50 (MMP-13; [3]) | Compound | IC50 (MMP-13; MMP-13 IC50 (nM), recombinant human MMP-13, MCA peptide substrate 4 μM, pH 7.5, room temperature) | pIC50 (MMP-1) | IC50 (MMP-2; MMP-2 IC50 (nM)) | pIC50 (MMP-13) | pIC50 (MMP-2) |
| --- | --- | --- | --- | --- | --- | --- | --- | --- |
| < 5.00 | 7.49 | 8.66 | O=C(NO)C1(S(=O)(=O)c2ccc(N3CCC(Oc4ccccc4)CC3)cc2)CCOCC1 [Example 185, N-Hydroxy-4[[[4-(4-phenoxy)piperidyl]phenyl]sulfonyl]-1-tetrahydropyrancarboxamide] | – | – | – | – | – |
| < 5.00 | 6.60 | 8.40 | O=C(NO)C1(S(=O)(=O)c2ccc(N3CCC(OCc4ccc(Cl)c(Cl)c4)CC3)cc2)CCOCC1 [Example 176] | – | – | – | – | – |
| < 5.00 | 7.06 | 8.11 | Cc1ccccc1N1CCN(c2ccc(S(=O)(=O)C3(C(=O)NO)CCOCC3)cc2)CC1 [Example 536] | – | – | – | – | – |
| < 5.00 | 5.74 | 7.89 | O=C(Nc1cccc(OC(F)(F)F)c1)C1CCN(c2ccc(S(=O)(=O)C3(C(=O)NO)CCOCC3)cc2)CC1 [Example 68] | – | – | – | – | – |
| < 5.00 | 6.52 | 7.83 | O=C(NCCc1ccccc1)OC1CCN(c2ccc(S(=O)(=O)C3(C(=O)NO)CCOCC3)cc2)CC1 [Example 516] | – | – | – | – | – |
| < 5.00 | 6.96 | 8.10 | Cc1ccc(S(=O)(=O)N2CCN(c3ccc(S(=O)(=O)C4(C(=O)NO)CCOCC4)cc3)CC2)cc1 [Example 674] | – | – | – | – | – |
| < 5.00 | 9.40 | 8.85 | O=C(Cn1ccnc1)N1CCC(C(=O)NO)(S(=O)(=O)c2ccc(Oc3ccc(C(F)(F)F)cc3)cc2)CC1 [Example 317] | – | – | – | – | – |
| < 5.00 | > 10.00 | 8.57 | O=C(NO)C1(S(=O)(=O)c2ccc(Oc3ccc(OC(F)(F)F)cc3)cc2)CCN(S(=O)(=O)C(F)(F)F)CC1 [Example 197] | – | – | – | – | – |
| < 5.00 | 6.90 | 7.30 | COc1ccccc1COC1CCC(Oc2ccc(S(=O)(=O)C3(C(=O)NO)CCOCC3)cc2)C1 (stereo not drawn) [Example 741] | – | – | – | – | – |
| < 5.00 | 7.51 | 8.10 | O=C(NO)C1(S(=O)(=O)c2ccc(N3CCC(OCc4ccc(COc5ccccc5)cc4)CC3)cc2)CCOCC1 [Example 613] | – | – | – | – | – |
| < 5.00 | 6.34 | 7.30 | O=C(NO)C1(S(=O)(=O)c2ccc(N3CCCN(S(=O)(=O)c4ccc(OC(F)(F)F)cc4)CC3)cc2)CCOCC1 [Example 699] | – | – | – | – | – |
| – | – | – | COc1ccccc1C1CCN(c2ccc(S(=O)(=O)C3(C(=O)NO)CCOCC3)cc2)CC1 [Example 79] | – | < 5.00 | 2000 nM | 7.70 | – |
| < 5.00 | < 5.00 | 5.11 | O=C(NO)C1(S(=O)(=O)c2ccc(N3CCCCC3CCOCc3cccc(C(F)(F)F)c3)cc2)CCOCC1 (stereo not drawn) [Example 512] | – | – | – | – | – |
| < 5.00 | 6.65 | 7.56 | O=C(NO)C1(S(=O)(=O)c2ccc(N3CCC(Oc4cccc(C(F)(F)F)c4)CC3)cc2)CCOCC1 [Example 620] | – | – | – | – | – |
| < 5.00 | 6.57 | 8.11 | O=C(Nc1cccc(F)c1)C1CCN(c2ccc(S(=O)(=O)C3(C(=O)NO)CCOCC3)cc2)CC1 [Example 71] | – | – | – | – | – |
| < 5.00 | 6.80 | 8.42 | Cc1ccc(COC2CCN(c3ccc(S(=O)(=O)C4(C(=O)NO)CCOCC4)cc3)CC2)cc1 [Example 172] | – | – | – | – | – |
| < 5.00 | 7.20 | 7.85 | O=C(NO)C1(S(=O)(=O)c2ccc(N3CCC(CCOCc4ccc(Cl)c(Cl)c4)CC3)cc2)CCOCC1 [Example 502] | – | – | – | – | – |
| < 5.00 | 5.10 | 7.30 | CN(Cc1cccnc1)C(=O)C1CCN(c2ccc(S(=O)(=O)C3(C(=O)NO)CCOCC3)cc2)CC1 [Example 497] | – | – | – | – | – |
| < 5.00 | 6.87 | 8.33 | CCOc1ccc(NC(=O)OC2CCN(c3ccc(S(=O)(=O)C4(C(=O)NO)CCOCC4)cc3)CC2)cc1 [Example 190] | – | – | – | – | – |
| – | – | – | CC1CC(C)CN(C(=O)C2CCN(c3ccc(S(=O)(=O)C4(C(=O)NO)CCN(C(=O)OCC5c6ccccc6-c6ccccc65)CC4)cc3)CC2)C1 (stereo not drawn) [Example 274] | – | < 5.00 | – | 6.80 | < 5.00 |
| < 5.00 | 6.81 | 7.73 | O=C(NO)C1(S(=O)(=O)c2ccc(N3CCC(Oc4ccc(OC(F)(F)F)cc4)CC3)cc2)CCOCC1 [Example 480] | – | – | – | – | – |
| < 5.00 | 9.70 | 9.40 | O=C(CNCc1cccnc1)N1CCC(C(=O)NO)(S(=O)(=O)c2ccc(Oc3ccc(C(F)(F)F)cc3)cc2)CC1 [Example 316] | – | – | – | – | – |
| < 5.00 | 6.43 | 7.10 | O=C(NO)C1(S(=O)(=O)c2ccc(N3CCN(Cc4ccccc4)CC3)cc2)CCOCC1 [Example 538] | – | – | – | – | – |

| Compound | pIC50 (MMP-1; [1]) | pIC50 (MMP-2; [2]) | pIC50 (MMP-13; [3]) | IC50 (MMP-13; MMP-13 IC50 (nM), recombinant human MMP-13, MCA peptide substrate 4 μM, pH 7.5, room temperature) | pIC50 (MMP-1) | IC50 (MMP-2; MMP-2 IC50 (nM)) | pIC50 (MMP-13) | pIC50 (MMP-2) |
| --- | --- | --- | --- | --- | --- | --- | --- | --- |
| CC1CC(C)CN(C(=O)C2CCN(c3ccc(S(=O)(=O)C4(C(=O)NO)CCN(C(=O)Cn5cncn5)CC4)cc3)CC2)C1 (stereo not drawn) [Example 311] | < 5.00 | < 5.00 | 6.92 | – | – | – | – | – |
| CONCC(=O)N1CCC(C(=O)NO)(S(=O)(=O)c2ccc(N3CCC(C(=O)N4CC(C)CC(C)C4)CC3)cc2)CC1 (stereo not drawn) [Example 312] | < 5.00 | < 5.00 | 6.70 | – | – | – | – | – |
| O=C(CN1CCCC1)N1CCC(C(=O)NO)(S(=O)(=O)c2ccc(Oc3ccc(C(F)(F)F)cc3)cc2)CC1 [Example 326] | < 5.00 | 9.35 | 9.22 | – | – | – | – | – |
| O=C(NO)C1(S(=O)(=O)c2ccc(Oc3ccc(OC(F)(F)F)cc3)cc2)CCN(c2cccnc2)CC1 [Example 392] | < 5.00 | 10.00 | 9.70 | – | – | – | – | – |
| Cc1cc(C(=O)C2CCN(c3ccc(S(=O)(=O)C4(C(=O)NO)CCOCC4)cc3)CC2)ccc1Cl [Example 858] | < 5.00 | 6.22 | 8.43 | – | – | – | – | – |
| O=C(NO)C1(S(=O)(=O)c2ccc(N3CCC(c4ccc(Cl)cc4)CC3)cc2)CCOCC1 [Example 541] | < 5.00 | 8.70 | – | 0.7 nM | – | – | – | – |
| O=C(c1ccc(OC(F)(F)F)cc1)C1CCN(c2ccc(S(=O)(=O)C3(C(=O)NO)CCOCC3)cc2)CC1 [Example 726] | < 5.00 | 6.60 | 7.80 | – | – | – | – | – |
| CC1CC(C)CN(C(=O)C2CCN(c3ccc(S(=O)(=O)C4(C(=O)NO)CCN(C(=O)CNCCOCCO)CC4)cc3)CC2)C1 (stereo not drawn) [Example 301] | < 5.00 | < 5.00 | 7.05 | – | – | – | – | – |
| O=C(Nc1ccccc1C(F)(F)F)N1CCC(C(=O)NO)(S(=O)(=O)c2ccc(Oc3ccc(OC(F)(F)F)cc3)cc2)CC1 [Example 364] | < 5.00 | 9.70 | 9.00 | – | – | – | – | – |
